Read-outs that look alike come from different tables or passages of the source.
How the values were obtained:
[1] = test system: luciferase-linked genotype 2a HCV RNAs; assay: microbe, parasite or virus in culture; format: cell-based, hepatitis C virus; conditions: read-out: EC50 (HCV replication)
Experimental: (§1) To order to study impacts of DGAT inhibitors on HCV genome replication independently of the particle production, we decided to examine effects of these twelve DGAT inhibitors on the levels of viral RNA genome and cell viability in parallel. […] Then, we treated them with an increasing concentration of each DGAT inhibitor. Then, luciferase and MTT-based cell viability assays were performed to determine EC50 and CC50 (cytotoxic concentration required to kill 50% of treated cells) values, respectively.
(§2) Cell viability was measured with EZ-CYTOX (10% tetrazolium salt; Dogen, Gyeonggi-do, Korea) as described previously. Anti-HCV replication analysis using a luciferase assay was conducted as previously described.

[2] = MTT-based cell viability assay (EZ-CYTOX); conditions: human
Experimental: as §1, §2

[3] = test system: HCV genotype 2a (Huh7.5-J6/JFH1); assay: HCV particle production: infectivity of supernatant on naive Huh7.5 cells by real-time RT-PCR; format: cell-based, hepatitis C virus; conditions: 10 μM
Experimental: A922500, a commercially available DGAT-1-specific inhibitor was used as a positive control [10]. […] Therefore, we decided to examine effects of these twelve DGAT inhibitors on HCV particle production as well as RNA genome replication in parallel. For this purpose, we transfected Huh7.5 cells with in vitro-transcribed genotype 2a HCV RNAs (Huh7.5-J6/JFH1) [16] and treated them with each DGAT inhibitor for 6 and 72 h at 10 μM. HCV genome replication as well as host GAPDH RNA levels was quantitated by a real-time RT-PCR analysis. For assessment of HCV particle production, we harvested and filtered the supernatant from Huh7.5-J6/JFH1 cells treated with DGAT inhibitors and incubated the supernatant with naïve huh7.5 cells for 72 h. Then, infectivity was measured by a real-time RT-PCR analysis.
Huh7.5-J6/JFH-1 cells were seeded into 6-well plates at a density of 3 × 10^5 cells per well with DMEM containing 10% FBS. […] Total RNAs were extracted from treated cells and virus-containing media were harvested at each time point. Naïve Huh7.5 cells were infected with these virus-containing media after concentration with centricons.

[4] = test system: DGATs (rat liver microsome); design: method as in PMID 23141914, PMID 23242135; conditions: cited from earlier work
recombinant DGAT-1 = test system: recombinant DGAT-1; design: method as in PMID 23242135; conditions: recombinant DGAT-1, [14C] oleoyl-CoA as acyl-donor; cited from earlier work
recombinant DGAT-2 = test system: recombinant DGAT-2; design: method as in PMID 23242135; conditions: cited from earlier work
HepG2 cells = test system: HepG2 cells; design: method as in PMID 23242135; conditions: [14C] glycerol as substrate; cited from earlier work
[5] = test system: HCV NS3 (Huh7.5-J6/JFH1, genotype 2a); assay: western blot of HCV NS3 protein in Huh7.5-J6/JFH1 cells; conditions: positive control
Experimental: Due to the tight coupling of viral genome replication to its protein expression, inhibition of viral RNA genome replication leads to a subsequent reduction of viral protein expression.
(A) Dose-dependent western blot analysis of Huh7.5-J6/JFH1 cells treated with increasing concentrations of 10j for 72 h by measuring protein expression levels of HCV NS3 relative to the β-actin. Daclatasvir, an NS5A inhibitor was used as a positive control. (B) Time-dependent western blot analysis of J6/JFH1 RNA-transfected Huh7.5 cells treated with 8 μM of 10j for increasing periods of time analyzed by measuring protein expression levels of HCV NS3 relative to the β-actin. (C,D) Same experiments were performed as in (A,B) to study effects of 10j on the expression levels of the NS5A protein of Huh7.5-Bart79I cells in a dose- as well as time-dependent manners.
Western blot analysis of Huh7.5-J6/JFH1 or Bart79I cells treated with 10j was conducted as previously described. Relative amounts of HNF4α proteins were quantified by using an HNF4α mouse monoclonal antibody (M04), clone 4E2 (Abnova) with the dilution of 1:1000.

[6] = Hepatitis C virus, Huh7.5, luciferase-linked genotype 2a HCV RNA in Huh7.5 cells

Row | Compound | EC50 [1, 6] | CC50 [2] | effect on HCV particle production ([3]; 6 h (Figure 1B)) | effect on HCV particle production ([3]; 72 h (Figure 1D)) | IC50 [4] | IC50 (recombinant DGAT-1) | IC50 (recombinant DGAT-2) | TG % (10 μM in HepG2), relative [14C] triglyceride percentage (HepG2 cells) | EC50 ([1]; luciferase-linked genotype 2a HCV RNA in Huh7.5 cells) | expression of viral proteins [5]
1 | CC(C)NC(=O)c1cccc(NC(=O)/C=C/c2cn(C(=O)OC(C)(C)C)c3ccccc23)c1 [5a] | 1.9 µM | 3.7 µM | able to block HCV particle production | suppress the viral particle production | 8.8 µM | > 100 µM | 6.9 µM |  |  | 
2 | CC(C)(C)OC(=O)n1cc(/C=C/C(=O)Nc2cccc(C(=O)N3CCCC3)c2)c2ccccc21 [5c] | > 10 µM | > 10 µM |  | suppress the viral particle production | 13.2 µM | 89.1 µM | 6.8 µM |  |  | 
3 | CC(C)(C)OC(=O)n1cc(/C=C/C(=O)Nc2cccc(C(=O)NCc3ccco3)c2)c2ccccc21 [5h] | 2.1 µM | 5.1 µM | able to block HCV particle production | suppress the viral particle production | 2.5 µM | > 100 µM | 6.9 µM | 33.2% |  | 
4 | Cc1ccc(CNC(=O)c2cccc(NC(=O)/C=C/c3cn(C(=O)OC(C)(C)C)c4ccccc34)c2)o1 [5j] | 1.1 µM | 3.4 µM |  | suppress the viral particle production | 9.4 µM | > 100 µM | 7.4 µM |  |  | 
5 | CC(C)CCn1cc(/C=C/C(=O)N(NC(=O)c2cccc(F)c2)C(C)C)c2ccccc21 [8h] | 6.7 µM | > 10 µM |  | suppress the viral particle production |  | 20.4 µM | > 10 µM | 71.2% |  | 
6 | CC(C)CCn1cc(/C=C/C(=O)N(NC(=O)c2ccc(F)cc2)C(C)C)c2ccccc21 [8i] | 5.1 µM | > 10 µM |  | suppress the viral particle production |  | 2.1 µM | > 10 µM | 94.8% |  | 
7 | CC(C)=CCn1cc(/C=C/C(=O)N(NC(=O)c2cccc(F)c2)C(C)C)c2ccccc21 [8u] | > 10 µM | > 10 µM |  | suppress the viral particle production |  | 1.5 µM | > 10 µM | 55.7% |  | 
8 | O=C(c1ccc2nc(COc3ccc(C45CC6CC(CC(C6)C4)C5)cc3)[nH]c2c1)N1CCCCC1 [10e] | > 10 µM | > 10 µM |  |  | 27.5 µM |  |  |  |  | 
9 | O=C(Nc1ccccc1)c1ccc2nc(COc3ccc(C45CC6CC(CC(C6)C4)C5)cc3)[nH]c2c1 [10f] | > 10 µM | > 10 µM |  |  | > 50 µM |  |  |  |  | 
10 | O=C(NCc1ccccc1)c1ccc2nc(COc3ccc(C45CC6CC(CC(C6)C4)C5)cc3)[nH]c2c1 [10h] | < 10 µM | > 10 µM |  |  | > 50 µM |  |  |  | 7.7 µM | 
11 | O=C(NCc1ccccn1)c1ccc2nc(COc3ccc(C45CC6CC(CC(C6)C4)C5)cc3)[nH]c2c1 [10i] |  | 3.9 µM |  |  | 20 µM |  |  |  |  | 
12 | COC(=O)N[C@H](C(=O)N1CCC[C@H]1c1nc(-c2ccc(-c3ccc(-c4c[nH]c([C@@H]5CCCN5C(=O)[C@@H](NC(=O)OC)C(C)C)n4)cc3)cc2)c[nH]1)C(C)C [Daclatasvir, reference compound] |  |  |  |  |  |  |  |  |  | able to inhibit expression of viral proteins
